Laboratory results from US10829520B2, “Beta-hairpin peptidomimetics” (POLYPHOR AG, priority 2015, dated 2020).
*1 amine or outer side, *2 acyl side, *3 side chain or, on linkers, in order; H or OH if unused. Where a SMILES comes first, the peptide text is derived from it. Bridges are numbered along the chain shown (N, C = ends). Roman numbers before positions name the chains, in order. [ ]: non-standard residue; d: D form. NMeW = CN[C@@H](Cc1c[nH]c2ccccc12)C(=O)O; X1 = CC(C)NC[C@H](N[*:1])C(=O)[*:2]; Hyp = O=C(O)[C@@H]1C[C@@H](O)CN1; Cha = N[C@@H](CC1CCCCC1)C(=O)O; Tle = CC(C)(C)[C@H](N)C(=O)O; dDab = NCC[C@@H](N)C(=O)O; Nle = CCCC[C@H](N)C(=O)O; Orn = NCCC[C@H](N)C(=O)O; Dab = NCC[C@H](N)C(=O)O; dAze = O=C(O)[C@H]1CCN1; Dap = NC[C@H](N)C(=O)O; Sar = CNCC(=O)O

Tests used:
Assay type in all cases: cell-based
[1] = tested on: human red blood cells (hRBC); test: Hemolysis of human red blood cells; conditions: red cells of human, 1 h
Summary of the method: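 Each peptide was tested at a single concentration, 100 μg/mL. Erythrocytes (20% v/v) were incubated 1 h at 37° C. under shaking at 300 rpm, centrifuged, and released hemoglobin measured at OD540. Controls were PBS containing 0.001% acetic acid (0%) and Triton X-100 (100%).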

[2] = tested on: Escherichia coli ATCC 25922; conditions: ATCC 25922
Summary of the method: (§1)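 Minimal inhibitory concentrations were recorded in μg/mL after the strains grew 18-20 hours at 35° C with two-fold serial peptide dilutions. The medium was Mueller-Hinton II (cation-adjusted) with 0.002% Polysorbate 80, and the inoculum was about 10^6 CFU/mL.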

[3] = tested on: Acinetobacter baumannii DSM 30008; conditions: DSM 30008
Summary of the method: as §1

[4] = tested on: Pseudomonas aeruginosa ATCC 27853; conditions: ATCC 27853
Summary of the method: as §1

Escherichia coli 926415 = conditions: 926415
[5] = tested on: Klebsiella pneumoniae 968733; conditions: 968733
[6] = tested on: Klebsiella pneumoniae SSI #3010; conditions: SSI #3010
Summary of the method: as §1

[7] = tested on: Acinetobacter baumannii 872842; conditions: 872842

Row | SMILES | Hemolysis at 100 μg/mL ([1]; 100 μg/mL) [%] | Escherichia coli ATCC 25922 MIC [2] [µg/mL] | Acinetobacter baumannii DSM 30008 MIC [3] [µg/mL] | Pseudomonas aeruginosa ATCC 27853 MIC [4] [µg/mL] | Escherichia coli 926415 MIC (Escherichia coli 926415) [µg/mL] | Klebsiella pneumoniae 968733 MIC [5] [µg/mL] | Klebsiella pneumoniae SSI #3010 MIC [6] [µg/mL] | Acinetobacter baumannii 872842 MIC [7] [µg/mL] | Hemolysis at 100 μg/mL [1]; 100 [%]
1 | CC(=O)N[C@@H](Cc1c[nH]c2ccccc12)C(=O)N[C@H]1CSSC[C@@H](C(=O)N[C@@H](CCCN)C(=O)N[C@H](C(=O)N[C@@H](CCN)C(=O)N[C@@H](CCN)C(=O)N[C@H]2CCNC(=O)[C@H]([C@@H](C)O)NC(=O)[C@H](CCN)NC(=O)[C@H](CCN)NC(=O)[C@H](CC(C)C)NC(=O)[C@@H](Cc3ccccc3)NC(=O)[C@H](CCN)NC2=O)[C@@H](C)O)NC(=O)[C@H](CC2CCCCC2)NC(=O)[C@H](CNC(C)C)NC(=O)[C@H](Cc2c[nH]c3ccccc23)NC(=O)[C@@H]2CCCN2C(=O)[C@H]2CCCN2C(=O)[C@H](CO)NC(=O)[C@H](C)NC(=O)[C@H](C(C)(C)C)NC1=O [Ex. 139] (Ac-WC[Tle]AS[dP]PW[X1][Cha]C[Orn]T[Dab][Dab][Dab][Dab][dF]L[Dab][Dab]T; disulfide 2-11; lactam 16-C) | 4 | 2 | 1 | 2 | 1 | 4 | 2 | 2 | –
2 | CCCC[C@@H]1NC(=O)[C@@H]2CCCN2C(=O)[C@H]2CCCN2C(=O)[C@H](CO)NC(=O)[C@H](C)NC(=O)[C@H](C(C)(C)C)NC(=O)[C@@H](NC(=O)[C@@H](N)Cc2c[nH]c3ccccc23)CSSC[C@@H](C(=O)N[C@@H](CCN)C(=O)N[C@H](C(=O)N[C@@H](CN)C(=O)N[C@H]2CCNC(=O)[C@H]([C@@H](C)O)NC(=O)[C@H](CCN)NC(=O)[C@H](CCN)NC(=O)[C@H](CC(C)C)NC(=O)[C@@H](Cc3ccccc3)NC(=O)[C@H](CCN)NC2=O)[C@@H](C)O)NC(=O)[C@H](Cc2ccc(O)cc2)NC(=O)[C@H](CO)NC1=O [Ex. 16] (H-WC[Tle]AS[dP]P[Nle]SYC[Dab]T[Dap][Dab][Dab][dF]L[Dab][Dab]T; disulfide 2-11; lactam 15-C) | 3 | 0.5 | 0.25 | 0.25 | 0.125 | 0.375 | 0.25 | 0.25 | –
3 | CN[C@@H](Cc1c[nH]c2ccccc12)C(=O)N[C@H]1CSSC[C@@H](C(=O)N(C)CC(=O)N[C@@H](CCN)C(=O)N[C@H](C(=O)N[C@@H](CCN)C(=O)N[C@H]2CCNC(=O)[C@H]([C@@H](C)O)NC(=O)[C@H](CCN)NC(=O)[C@H](CCN)NC(=O)[C@H](CC(C)C)NC(=O)[C@@H](CC(C)C)NC(=O)[C@H](CCN)NC2=O)[C@@H](C)O)NC(=O)[C@H](Cc2ccc(O)cc2)NC(=O)[C@H]([C@@H](C)O)NC(=O)[C@H](C(C)C)NC(=O)[C@@H]2C[C@@H](O)CN2C(=O)[C@@H](C)NC(=O)[C@H]([C@@H](C)O)NC(=O)[C@H](C)NC(=O)[C@H](C(C)C)NC1=O [Ex. 175] (H-[NMeW]CVAT[dA][Hyp]VTYC[Sar][Dab]T[Dab][Dab][Dab][dL]L[Dab][Dab]T; disulfide 2-11; lactam 16-C) | <1 | 0.0625 | 0.0625 | 0.25 | 0.5 | 0.5 | 0.0625 | 1 | –
4 | CC(C)C[C@@H]1NC(=O)[C@@H](CC(C)C)NC(=O)[C@H](CCN)NC(=O)[C@@H](NC(=O)[C@H](CCN)NC(=O)[C@@H](NC(=O)[C@H](CCN)NC(=O)CN(C)C(=O)[C@@H]2CSSC[C@H](NC(=O)[C@@H](N)Cc3c[nH]c4ccccc34)C(=O)N[C@@H](C(C)(C)C)C(=O)N[C@@H](Cc3ccc(O)cc3)C(=O)N[C@@H](CO)C(=O)N3CCC[C@@H]3C(=O)N3CCC[C@H]3C(=O)N[C@@H](CC(C)C)C(=O)N[C@@H](CN)C(=O)N[C@@H](Cc3ccc(O)cc3)C(=O)N2)[C@@H](C)O)CCNC(=O)[C@H]([C@@H](C)O)NC(=O)[C@H](CCN)NC(=O)[C@H](CCN)NC1=O [Ex. 140] (H-WC[Tle]YS[dP]PL[Dap]YC[Sar][Dab]T[Dab][Dab][Dab][dL]L[Dab][Dab]T; disulfide 2-11; lactam 16-C) | <1 | 0.0625 | 0.125 | 0.5 | 0.125 | 1 | 0.0625 | 0.125 | –
5 | CCCC[C@@H]1NC(=O)[C@@H]2CCCN2C(=O)[C@H]2CCCN2C(=O)[C@H](CO)NC(=O)[C@H](C)NC(=O)[C@H](C(C)(C)C)NC(=O)[C@@H](NC(=O)[C@H](Cc2c[nH]c3ccccc23)NC(C)=O)CSSC[C@@H](C(=O)N[C@@H](C)C(=O)N[C@@H](CCN)C(=O)N[C@H](C(=O)N[C@@H](CCN)C(=O)N[C@H]2CCNC(=O)[C@H]([C@@H](C)O)NC(=O)[C@H](CCN)NC(=O)[C@H](CCN)NC(=O)[C@H](CC(C)C)NC(=O)[C@@H](Cc3ccccc3)NC(=O)[C@H](CCN)NC2=O)[C@@H](C)O)NC(=O)[C@H](Cc2ccc(O)cc2)NC(=O)[C@H](CO)NC1=O [Ex. 28] (Ac-WC[Tle]AS[dP]P[Nle]SYCA[Dab]T[Dab][Dab][Dab][dF]L[Dab][Dab]T; disulfide 2-11; lactam 16-C) | 1 | 0.25 | 0.5 | 0.5 | 1.5 | 0.375 | 0.25 | 1 | –
6 | CCCC[C@@H]1NC(=O)[C@@H]2CCCN2C(=O)[C@H]2CCCN2C(=O)[C@H](CO)NC(=O)[C@H](C)NC(=O)[C@H](C(C)(C)C)NC(=O)[C@@H](NC(=O)[C@H](Cc2c[nH]c3ccccc23)NC(=O)[C@@H](N)CCCNC(=N)N)CSSC[C@@H](C(=O)N[C@@H](CCN)C(=O)N[C@H](C(=O)N[C@@H](CCN)C(=O)N[C@H]2CCNC(=O)[C@H]([C@@H](C)O)NC(=O)[C@H](CCN)NC(=O)[C@H](CCN)NC(=O)[C@H](CC(C)C)NC(=O)[C@@H](Cc3ccccc3)NC(=O)[C@H](CCN)NC2=O)[C@@H](C)O)NC(=O)[C@H](Cc2ccc(O)cc2)NC(=O)[C@H](CO)NC1=O [Ex. 39] (H-RWC[Tle]AS[dP]P[Nle]SYC[Dab]T[Dab][Dab][Dab][dF]L[Dab][Dab]T; disulfide 3-12; lactam 16-C) | 4 | 0.25 | 0.25 | 0.25 | 0.25 | 2 | 0.125 | 0.5 | –
7 | CC(C)C[C@@H]1NC(=O)[C@H](CO)NC(=O)[C@H](Cc2ccc(O)cc2)NC(=O)[C@@H]2CCCN2C(=O)[C@H]2CCCN2C(=O)[C@H](C(C)C)NC(=O)[C@H](C)NC(=O)[C@H](C(C)C)NC(=O)[C@@H](NC(=O)[C@@H](N)C(C)C)CSSC[C@@H](C(=O)NCC(=O)N[C@@H](CCN)C(=O)N[C@H](C(=O)N[C@@H](CCN)C(=O)N[C@H]2CCNC(=O)[C@H]([C@@H](C)O)NC(=O)[C@H](CCN)NC(=O)[C@H](CCN)NC(=O)[C@H](CC(C)C)NC(=O)[C@@H](CC(C)C)NC(=O)[C@H](CCN)NC2=O)[C@@H](C)O)NC1=O [Ex. 155] (H-VCVAV[dP]PYSLCG[Dab]T[Dab][Dab][Dab][dL]L[Dab][Dab]T; disulfide 2-11; lactam 16-C) | <1 | 0.0625 | 0.03125 | 1 | 0.25 | 0.5 | 0.0625 | 0.0625 | –
8 | CC(C)C[C@@H]1NC(=O)[C@@H](CC(C)C)NC(=O)[C@H](CCN)NC(=O)[C@@H](NC(=O)[C@H](CCN)NC(=O)[C@@H](NC(=O)[C@H](CCN)NC(=O)CC[C@@H]2NC(=O)[C@H](CCN)NC(=O)[C@H](Cc3ccc(O)cc3)NC(=O)[C@@H]3CCNC(=O)C[C@H](NC(=O)[C@H](C(C)(C)C)NC(=O)[C@H](CCN)NC(=O)[C@H](Cc4c[nH]c5ccccc45)NC(=O)[C@H](CCN)NC(=O)[C@@H](CCN)NC2=O)C(=O)N[C@@H]([C@@H](C)O)C(=O)N2CC[C@@H]2C(=O)N2CCC[C@H]2C(=O)N[C@@H](C(C)C)C(=O)N3)[C@@H](C)O)CCNC(=O)[C@H]([C@@H](C)O)NC(=O)[C@H](CCN)NC(=O)[C@H](CCN)NC1=O [Ex. 87] (I: cyclo(W[Dab][Tle]DT[dAze]PV[Dab]Y[Dab]E[dDab][Dab]) / II: [Dab]T[Dab][Dab][Dab][dL]L[Dab][Dab]T; lactam I:4-I:9, II:4-II:C; amide I:12-II:N) | – | 0.125 | 0.25 | 0.25 | 0.125 | 0.25 | 0.25 | 0.5 | <1
